Data published in US9497963B2, “Methods and compositions for control of gypsy moth, Lymantria dispar” (Simon Fraser University, priority 2008, dated 2016).
Where two headings read alike, the source gives them in different places.

Experiments:
male gypsy moth antenna = experiment: Coupled gas chromatographic-electroantennographic detection (GC-EAD); set-up: species or system Lymantria dispar; settings: EAD peak size and shape (sharp/broad)
Procedure, shortened: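 GC column effluent split between flame ionization detector and an excised male moth antenna held between saline-filled glass capillary electrodes, tip removed, in a warm air stream. Antennal potentials assigned to compounds by matching retention times with FID peaks.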

[1] = test system: male gypsy moth antenna response to pheromone (+)-1; experiment: EAG short-term (STI) and long-term (LTI) inhibition of pheromone signaling (Example 5); set-up: species or system Lymantria dispar; settings: for inhibition at 0.001 mg / inhibition at 0.01 mg / inhibition at 0.1 mg / inhibition at 100 µg, 0.1 mg: Lymantria dispar; for inhibition at 0.001 mg / inhibition at 0.01 mg / inhibition at 0.1 mg / Activity (%): short-term inhibition (STI): negative = enhancement
Procedure, shortened: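 Excised male gypsy moth antenna in saline pH 6.8 under purified air (300 mL/min); 0.3 s puffs: air, (+)-1 100 ng, (+)-1 plus compound 1, 10, 100 μg per cartridge, then (+)-1 alone. STI: mixed-puff air-corrected depolarization loss versus first pheromone puff; LTI: final pheromone-puff loss.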

[2] = test system: male gypsy moth antenna response to mixed pheromone/modulator plume; experiment: EAG peak broadening (PB) (Example 11); set-up: species or system Lymantria dispar; settings: mixed plume, 100 μg compound and 100 ng pheromone (puff v vs puff ii)
Method: A mixed pheromone/modulator plume could elicit a prolonged response (FIG. 1A, puff v; FIG. 2), and this was termed peak broadening (PB). PB was calculated from the EAG traces as follows: PB=100×(Δtv−Δtii)/Δtii
Where Δt was the width of the EAG peak (in s) from the start of the depolarization to the return to background potential.

[3] = test system: male gypsy moth antenna response to odorants other than (+)-1; experiment: Long-term inhibition of responses to other pheromone and host plant odorants, EAG (Example 8, first objective); set-up: species or system Lymantria dispar
Method: To determine whether the long-term inhibitory effects of 3c{2,3} and DEET are specific to (+)-1 or also apply to other odorants, compound 3c{2,3} and DEET were tested further with other odorants: (−)-1, racemic 1, dispar alkene, methyl eugenol and 1-hexanol.
These included (−)-1, racemic 1, dispar alkene (the alkene corresponding to the carbon framework of 1), methyl eugenol (a characteristic oak wood odorant) and 1-hexanol (a green leaf volatile, shown previously to be detected by gypsy moth antennae). For the pure odorant puffs, (−)-1 and racemic 1 were administered at 100 ng/cartridge, the alkene, methyl eugenol was administered at 1 μg/cartridge and 1-hexanol was administered at 100 μg/cartridge. The antagonists were both administered at 100 μg/cartridge, mixed with the appropriate dose of the odorant. The puff order was: i) air, ii) pure odorant, iii) odorant+antagonist, iv) pure odorant. All puffs were corrected for the air response as in Eq. 1. STI values were obtained from the depolarization […]. LTI values were obtained by comparing the depolarization of puff iv relative to that of puff ii.

[4] = test system: third instar gypsy moth larvae; experiment: Feeding deterrence, oak leaf disc choice test (Example 13); format: in vivo, Lymantria dispar
Method: Gypsy moth larvae were tested at the Canadian Forest Service, for feeding deterrence. A selected set of compounds, based on the results with the electroantennogram testing and also based on feeding deterrence assay results with the cabbage looper, T. ni. The experiment was done with third instar larvae and oak leaf discs. Larvae were left to choose between a treated and a control disc for 17.5 hours. Measurements of leaf areas were used to calculate the amount of leaf consumed from control (C) and treated (T) leaves. Feeding deterrence was calculated using the following formula: ((C−T)/(C+T))*100, and expressed in percent, where C=area of control leaf consumed and T=area of treated leaf consumed.

gypsy moths = experiment: Field test of trap catches, Northern Japan 2009 (Example 12); format: in vivo, Lymantria dispar; settings: (+)-dis 40 μg/lure & compound 40 mg/lure, vs (+)-dis alone
Method: Ten traps were used per treatment. The solvent used to deliver the compounds onto the lures was doubly distilled hexane. The hexane was evaporated prior to packing and shipping the lures. The field test was conducted in 10 replicates in Northern Japan. The test was conducted Aug. 16-18, 2009, in an area where gypsy moths are known to live. […] Traps were arranged randomized, placed on platforms. The experiment was conducted blind. The lures contained 40 μg disparlure/lure, a low dose for a field trial (typically 100 μg-1 mg are used). For each treatment, 10 traps were deployed.

L. dispar PBP 1 = experiment: Pheromone-binding protein (PBP) ligand binding assay, PBP1; set-up: species or system Lymantria dispar
Method: (§1) A. The protein and ligand are incubated in buffer overnight. B. For half of the incubation mixture, the free ligand (L) is separated from the protein-bound ligand (P.L) by size-exclusion chromatography on P2 Gel (BioRad, exclusion limit 2000 Da). The protein elutes from the small column bed, with its ligand bound (see Examples and […] et al. 2000; Staddon and Everton 1980), while the free ligand is retained on the column ([…] et al. 2000). C. […] The extract from the filtrate (B) contains the protein-bound ligand and the extract from the incubation mixture (A) contains all the ligand (bound and free) present in the aqueous phase. The extracts are analyzed by GC-MS, to obtain values for total ligand in solution (L+P.L) and for protein-bound ligand (P.L). These can then be used to calculate % bound (Table 3). These assays were performed as described in FIG. 3 and as follows: L. dispar PBP 1 or PBP 2 was incubated with the test compound or mini-library. The PBP and the ligand(s) (L) were left to equilibrate (eq 2) overnight. The non-bound ligand was then separated from the protein-bound material (PBP.L) by size-exclusion chromatography. By determining the total ligand in solution at equilibrium (eq. 3) and the protein-bound ligand, it is possible to estimate the percentage of ligand bound to the protein at equilibrium (eq. 4). […] This binding assay has been validated extensively in previous studies ([…] et al. 2000). The components of each mini-library separated cleanly by GC, so it was possible to monitor binding of individual components. PBP+L⇄PBP·L (eq. 2) [L]tot=[L]+[PBP·L] (eq. 3) % bound=100×[PBP·L]/[L]tot (eq. 4) Results: The members of each mini-library separated cleanly by GC, therefore it was possible to monitor binding of individual members to PBP1 or PBP2, the two known PBPs in the gypsy moth, by extraction from the aqueous incubation mixture, followed by GC analysis of the extract (FIG. 3).

L. dispar PBP 2 = experiment: Pheromone-binding protein (PBP) ligand binding assay, PBP2; set-up: species or system Lymantria dispar
Method: as §1

[5] = test system: male gypsy moth antennae response to pheromone (+)-1 with plant odors; experiment: Effect on mixed pheromone/plant odorant stimulus, EAG (Example 8, second objective); set-up: species or system Lymantria dispar; settings: (+)-1 100 ng + 1-hexanol 100 μg, no antagonist
Method: A second objective for this experiment was to determine whether the oak volatiles, methyl eugenol and 1-hexanol, can enhance the antennal response to (+)-1 and whether the mixed pheromone/plant odorant stimulus can be inhibited by compound 3c{2,3} or DEET. The puff order was: i) air, ii) pure (+)-1 (100 ng), iii) (+)-1 (100 ng) and plant odorant (1 μg for methyl eugenol and 100 μg for 1-hexanol), iv) (+)-1 and plant odorant as in iii+antagonist (100 μg), v) same as in iii. Depolarizations were corrected for the air response as in Eq. 1 and the short-term effects were calculated for puff iii relative to puff ii, and for puff iv relative to puff ii. Long-term effects were calculated for puff v relative to puff iii (for LTI of the mixed pheromone/plant odorant plume) and for puff v relative to puff ii (to determine whether long-term effects of the plant odorant and of the antagonist cancel).

[6] = mixed plume (+)-1 100 ng + compound 1 μg, mean ± S.E., read-out: Activity (%): short-term inhibition (STI)
[7] = mixed plume (+)-1 100 ng + compound 10 μg, mean ± S.E., read-out: Activity (%): short-term inhibition (STI)
[8] = mixed plume (+)-1 100 ng + compound 100 μg (puff v), mean ± S.E., read-out: Activity (%): short-term inhibition (STI)
[9] = pure (+)-1 100 ng plume following mixed plume with 100 μg compound, mean ± S.E., read-out: Activity (%): long-term inhibition (LTI)
[10] = member tested within library 3c{5, 1-5}
[11] = member tested within library 3c{2, 1-5}

SMILES: CCCOc1ccccc1OCCC [3a{3,3}, 1,2-Dipropoxy benzene]
- GC-EAD activity (male gypsy moth antenna): ++ sharp
- inhibition at 0.001 mg [1, 6]: 37 ± 14%
- inhibition at 0.01 mg [1, 7]: 4 ± 21%
- inhibition at 0.1 mg [1, 8]: -11 ± 36%
- inhibition at 100 µg, 0.1 mg [1, 9]: 36 ± 9%
- activity (% peak broadening) [2]: 80 ± 31%

SMILES: C=CCOc1cccc(OCC)c1 [3b{2,6}, 1-allyloxy-3-ethoxybenzene]
- GC-EAD activity (male gypsy moth antenna): None
- inhibition at 0.001 mg [1, 6]: -115 ± 43%
- inhibition at 0.01 mg [1, 7]: -17 ± 54%
- inhibition at 0.1 mg [1, 8]: -50 ± 74%
- inhibition at 100 µg, 0.1 mg [1, 9]: 25 ± 8%
- activity (% peak broadening) [2]: 77 ± 33%

SMILES: COc1ccccc1OC [3a{1,1}, 1,2-Dimethoxy benzene]
- GC-EAD activity (male gypsy moth antenna): ++ sharp
- inhibition at 100 µg, 0.1 mg ([1]; read-out: Activity (%): long-term inhibition (LTI)): 18 ± 13%
- activity (% peak broadening) [2]: 99 ± 25%

SMILES: C=CCc1ccc(OC)c(OC)c1 [Me eugenol]
- EAG response to the pure odorant (in words) [3]: same responses than clean air
- Feeding Deterrence (%) ([4]; foliar, 17.5 h): 81.15%
- trap catches in the field (gypsy moths): enhanced the trap catches significantly
- GC-EAD activity (male gypsy moth antenna): None
- inhibition at 100 µg, 0.1 mg ([1]; read-out: Activity (%): long-term inhibition (LTI), pure (+)-1 100 ng plume following mixed plume with 100 μg compound, mean ± S.E.): 8 ± 11%
- inhibition at 0.001 mg ([1]; read-out: Activity (%): short-term inhibition (STI), mixed plume (+)-1 100 ng + compound 1 μg, mean ± S.E.): -1 ± 13%
- inhibition at 0.01 mg ([1]; read-out: Activity (%): short-term inhibition (STI), mixed plume (+)-1 100 ng + compound 10 μg, mean ± S.E.): 76 ± 7%
- inhibition at 0.1 mg ([1]; read-out: Activity (%): short-term inhibition (STI), mixed plume (+)-1 100 ng + compound 100 μg (puff v), mean ± S.E.): -152 ± 30%

SMILES: C=CCc1ccc(OCCC)c(OC)c1 [Pr eugenol]
- Feeding Deterrence (%) ([4]; third instar larvae, oak leaf discs, choice between treated and control disc for 17.5 hours, ((C−T)/(C+T))*100): 52.67%
- GC-EAD activity (male gypsy moth antenna): None
- Activity (%): short-term inhibition (STI) ([1]; mixed plume (+)-1 100 ng + compound 1 μg, mean ± S.E.): 18 ± 37 (6) %
- Activity (%): short-term inhibition (STI) ([1]; mixed plume (+)-1 100 ng + compound 10 μg, mean ± S.E.): 39 ± 23 (6) %
- Activity (%): short-term inhibition (STI) ([1]; mixed plume (+)-1 100 ng + compound 100 μg (puff v), mean ± S.E.): −79 ± 25 (6) %
- Activity (%): long-term inhibition (LTI) ([1]; pure (+)-1 100 ng plume following mixed plume with 100 μg compound, mean ± S.E.): 7 ± 6 (6) %

SMILES: CCCCOc1ccccc1OCCCC [3a{4,4}, 1,2-Dibutoxy benzene]
- GC-EAD activity (male gypsy moth antenna): + broad
- inhibition at 0.001 mg [1, 6]: -48 ± 28%
- inhibition at 0.01 mg [1, 7]: 14 ± 31%
- inhibition at 0.1 mg [1, 8]: 27 ± 29%
- inhibition at 100 µg, 0.1 mg [1, 9]: 49 ± 12%
- activity (% peak broadening) [2]: 86 ± 32%

SMILES: CCCOc1ccc(OCCC(C)C)cc1 [3c{3,5}, 1-(3-methyl-butyloxy)-4-propoxy benzene]
- PBP1 (% bound) (L. dispar PBP 1; member tested within library 3c{3, 1-5}): 1 ± 0.2%
- PBP1 (% bound) (L. dispar PBP 1; [10]): 3 ± 0.1%
- PBP2 (% bound) (L. dispar PBP 2; [10]): 2 ± 0.02%
- GC-EAD activity (male gypsy moth antenna): None
- inhibition at 0.001 mg [1, 6]: 10 ± 11%
- inhibition at 0.01 mg [1, 7]: -120 ± 20%
- inhibition at 0.1 mg [1, 8]: -145 ± 35%
- inhibition at 100 µg, 0.1 mg [1, 9]: 4 ± 7%

SMILES: CCCCCCO [Compound 1-hexanol, 1-hexanol, reference compound]
- EAG response to the pure odorant (in words) [3]: weak odorant
- short-term effect with the plant synergist [5]: −19 ± 24 (10)

SMILES: CCOc1ccc(OCCC(C)C)cc1 [3c{2,5}, 1-ethoxy-4-(3-methyl-butyloxy) benzene]
- PBP1 (% bound) (L. dispar PBP 1; [11]): 4 ± 0.2%
- PBP1 (% bound) (L. dispar PBP 1; [10]): 2 ± 0.1%
- PBP2 (% bound) (L. dispar PBP 2; [11]): 14 ± 0.2%
- PBP2 (% bound) (L. dispar PBP 2; [10]): 3 ± 0.03%
- GC-EAD activity (male gypsy moth antenna): None

SMILES: CCOc1ccccc1OCC [3a{2,2}, 1,2-Diethoxy benzene]
- GC-EAD activity (male gypsy moth antenna): + sharp
- inhibition at 0.001 mg [1, 6]: -10 ± 29%
- inhibition at 0.01 mg [1, 7]: -23 ± 42%
- inhibition at 0.1 mg [1, 8]: -22 ± 69%
- inhibition at 100 µg, 0.1 mg [1, 9]: 15 ± 11%
- activity (% peak broadening) [2]: 106 ± 32%
